According to paper PMC7721636 (Metabolic Engineering Communications, 2020):

Biological target: T1, Prk (Synechocystis sp. PCC 6803, UniProt P37101)
T1 sequence (P37101 1-332): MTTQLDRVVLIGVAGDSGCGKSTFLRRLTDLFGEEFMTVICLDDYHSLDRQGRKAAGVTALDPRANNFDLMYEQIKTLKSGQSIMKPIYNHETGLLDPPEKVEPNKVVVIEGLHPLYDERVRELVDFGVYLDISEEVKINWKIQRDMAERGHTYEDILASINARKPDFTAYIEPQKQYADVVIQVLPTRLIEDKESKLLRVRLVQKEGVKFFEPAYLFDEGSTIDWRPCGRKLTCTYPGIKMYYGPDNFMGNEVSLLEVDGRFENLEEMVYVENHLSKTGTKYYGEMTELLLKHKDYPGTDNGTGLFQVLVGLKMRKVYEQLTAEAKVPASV
Test: coupled pyruvate kinase/lactate dehydrogenase assay, NADH at […] nm
Format: biochemical

## O=C(O)C[C@H](C(=O)O)[C@@H](O)C(=O)O [isocitrate]
  Ki: 1450 ± 130 µM
